This is an account of results in patent publication US20220370496A1, “HER3 PULSED DC1 THERAPY” (H. LEE MOFFITT CANCER CENTER AND RESEARCH INSTITUTE, INC., priority 2019, published 2022).

The assay concerns MT901. The assay can be described thus: Intratumoral HER3-DC1 in combination with Taxol. The format is in vivo, mouse. To be noted: 30 days after tumor cells were transferred.

Protocol: Taxol alone group received two injections of taxol. DC alone group received DCs once weekly beginning on day 5. DC+Taxol group received two injections of taxol before beginning DC treatment.
MT901, a mouse TNBC cell line, was injected in Balb/c mice and treatment began once tumors were palpable. HER3-DC1 vaccine was injected intratumorally once a week for six weeks. HER3 immune responses were measured in spleens, lymph nodes, and tumors post-vaccination. […] To investigate how the peptides would perform in the context of a therapeutic treatment of an established cancer, 5×10^5 MT901 cells were delivered to a Balb/c mouse s.c. and 5 days later weekly administration of 1×10^6 HER3 pulsed DC cells began and continued for six weeks (FIG. 8). […] To determine if the therapeutic or preventive effect could be improved in combination with an anti-cancer agent, mice were administered HER3-pulsed DC1 in combination with Taxol.

Regarding `CC(=O)O[C@H]1C(=O)[C@@]2(C)[C@H]([C@H](OC(=O)c3ccccc3)[C@]3(O)C[C@H](OC(=O)[C@H](O)[C@@H](NC(=O)c4ccccc4)c4ccccc4)C(C)=C1C3(C)C)[C@]1(OC(C)=O)CO[C@@H]1C[C@@H]2O` [taxol, Paclitaxel], the established tumors entry is reported as “had established tumors”.
